Test results reported in publication PMC6150245 (Molecules : A Journal of Synthetic Chemistry and Natural …, 2017).
Values after ≈ are worked out from the molar mass of the structure shown. “Also recorded” adds a separate entry of the source. Where two headings read alike, the source gives them in different places.

Tests used:
[1] = 25% human male serum; details: 37 °C, up to 30 h
[2] = tested on: S. aureus SA33; type: cell-based, Staphylococcus aureus; details: S. aureus SA33, sub-culture on MH agar, 99.9% death
Description: (§1) After confirming antibacterial activity, the peptides were tested against gram-positive and gram-negative multidrug-resistant bacteria, including strains of clinical origin. The peptides, p-BthTX-I, des-Lys^12/(p-BthTX-I)2, and Lys^13-(p-BthTX-I)2 were serially diluted (512–1 μM) in cation-adjusted BBL MH II broth (CAMHB; Becton, Dickson and Co., Sparks, MD, USA) as described by CLSI. Bacteria at 5.0 × 10^5 CFU/mL were added to the media and incubated for 24 h at 37 °C. […] Assays were performed in duplicates, and sterile broth was used as the negative control. To determine the minimal bactericidal concentration (MBC), 100 µL from each well of the MIC assay plates that inhibited bacterial growth were sub-cultured onto MH agar (MHA) plates. […] If the ratio of MBC/MIC was >4, the activity of the peptide was considered bacteriostatic, as described previously.

[3] = tested on: S. aureus SA88; type: cell-based, Staphylococcus aureus
Description: as §1

[4] = tested on: S. aureus SA16; type: cell-based, Staphylococcus aureus; details: S. aureus SA16 (MRSA)
Description: as §1

[5] = tested on: S. aureus ATCC25923; type: cell-based, Staphylococcus aureus; details: S. aureus ATCC25923, CAMHB, 24 h, 37 °C, duplicate
Description: as §1

[6] = tested on: S. aureus SA90; type: cell-based, Staphylococcus aureus; details: S. aureus SA90, sub-culture on MH agar, 99.9% death
Description: as §1

[7] = tested on: E. coli ATCC35218; type: cell-based, Escherichia coli
Description: as §1

[8] = tested on: E. coli CA4; type: cell-based, Escherichia coli; details: E. coli CA4 (commensal), CAMHB, 24 h, 37 °C, duplicate
Description: as §1

[9] = Serum stability assay; type: in vitro ADME; details: 25% human male serum, 37 °C, peptide 100 µM, analytical HPLC (C18) and LC/MS, duplicate
Description: Crude peptides were purified by semi-preparative HPLC on a Shimadzu system (Tokyo, Japan) using a C18 reversed phase column (10 × 250 mm, Phenomenex, Torrance, CA, USA). Solvent A contained 0.045% trifluoroacetic acid (TFA) in water. Elution was achieved using a linear gradient (5–35%) of solvent B (0.036% TFA in acetonitrile) for 120 min at 5 mL/min. The purity of the peptides was determined by analytical HPLC on a Shimadzu system using a C18 column (4.6 × 150 mm, Phenomenex, Torrance, CA, USA) with a linear gradient of solvent B (5–95%) for 30 min at 1 mL/min. Liquid chromatography-mass spectrometry (LC/MS) was performed using a C18 column (2.0 × 30 mm, Shimadzu) attached to analytical HPLC and an amaZon ion trap mass spectrometer (Bruker Daltonics) using ESI. Peptides were eluted using a linear gradient of solvent B (5–95%) for 15 min at 0.2 mL/min.
Peptide stability assays were performed in diluted serum as previously described with minor modifications. First, 2 mL of 25% human male serum was centrifuged at 3000× g for 10 min; the supernatant was collected and incubated for 15 min at 37 °C. Next, peptides were added to the serum to a final concentration of 100 µM. Then, 200 µL of samples were collected at different time points during the assays, which were performed in duplicate. Analyses were performed by LC/MS and analytical HPLC, as described above.

[10] = tested on: S. epidermidis ATCC35984; type: cell-based, Staphylococcus epidermidis
Description: as §1

[11] = tested on: E. faecium VRE16; type: cell-based, Enterococcus faecium
Description: as §1

[12] = tested on: E. faecium HSJRP8; type: cell-based, Enterococcus faecium
Description: as §1

[13] = tested on: K. pneumoniae NDM-1; type: cell-based, Klebsiella pneumoniae; details: K. pneumoniae NDM-1, sub-culture on MH agar, 99.9% death
Description: as §1

[14] = tested on: K. pneumoniae ATCC700603; type: cell-based, Klebsiella pneumoniae; details: K. pneumoniae ATCC700603 (SHV-18), CAMHB, 24 h, 37 °C
Description: as §1

[15] = tested on: K. pneumoniae ATCCBAA1705; type: cell-based, Klebsiella pneumoniae; details: K. pneumoniae ATCCBAA1705 (KPC), CAMHB, 24 h, 37 °C, duplicate
Description: as §1

[16] = tested on: C. albicans ATCC18804; test: Antifungal MIC, microdilution in RPMI 1640; type: cell-based, Candida albicans; details: C. albicans ATCC18804, RPMI 1640, 48 h, 37 °C, peptides 128-1 µM, triplicate
Description: (§2) The minimum inhibitory concentrations (MIC) were determined following the Clinical and Laboratory Standards Institute (CLSI) recommendations. Antibacterial and antifungal activity tests were performed using the microdilution method. For initial screening, peptides were tested against C. albicans ATCC18804, E. coli ATCC25922, and S. aureus ATCC25923. Briefly, bacterial cells in MH broth (80 μL aliquots containing 1.5 × 10^7 CFU) were incubated with synthetic peptides (serial dilution from 512 to 1 μM) dissolved in Milli-Q water. After incubation for 24 h at 37 °C, the microtiter plates were analyzed visually by addition of resazurin. For the antifungal assays, the culture medium was RPMI 1640 buffered with L-glutamine (pH 7.2), 0.165 M morpholinepropanesulfonic acid (MOPS), and 2% glucose. Cell suspensions (final concentration of 1 × 10^3–2.5 × 10^3 CFU/mL) were inoculated on a microdilution plate previously prepared with serially diluted synthetic peptides (128–1 μM). The plates were incubated for 48 h at 37 °C. Each assay was performed in triplicates. Additionally, amphotericin B and fluconazole were used as the control drugs. MIC was defined as the lowest concentration of peptide at which no growth was detected.

[17] = tested on: human red blood cells; test: Hemolysis assay; type: cell-based; details: 1% (v/v) human erythrocytes in Tris-saline pH 7.4, 1 h, 37 °C, absorbance 405 nm, triplicate
Description: Peptide hemolysis assays were performed as previously described by Castro et al.. Briefly, freshly prepared human red blood cells (RBCs) were washed three times with 0.01 M Tris-HCl (pH 7.4) containing 0.15 M NaCl (Tris-saline). A suspension of 1% (v/v) erythrocytes was made with packed RBCs resuspended in Tris-saline. Peptides were dissolved in Tris-saline at an initial concentration of […] and serially diluted in the same buffer to determine the concentration that triggered 50% hemolysis (HC50). As the positive control (100% lysis), 1% (v/v) Triton X-100 solution was used. After 1 h of incubation at 37 °C, the samples were centrifuged at 3000× g for 5 min. Then, 100 µL aliquots of the supernatant were transferred to 96-well microplates, and the absorbance was determined at 405 nm. The assay was performed in triplicates.

[18] = tested on: E. coli ATCC25922; test: MIC, microdilution in MH broth (initial screening); type: cell-based, Escherichia coli; details: 24 h, 37 °C, resazurin, triplicate
Description: as §2

[19] = tested on: S. aureus ATCC25923; test: MIC, microdilution in MH broth (initial screening); type: cell-based, Staphylococcus aureus; details: 24 h, 37 °C, resazurin, triplicate
Description: as §2

## KKYRYHLKPFCKK [(p-BthTX-I)2]
[1]
  cleaved bond: Lys12-Lys13, major, 30 min; also recorded: Cys11-Lys12, major, 30 min
  fragment found: (p-BthTX-I)2 minus one Lys residue, first_seen, 5 min; also recorded: (p-BthTX-I)2 minus two Lys residues, major, 5 min; also recorded: (p-BthTX-I)2 minus three Lys residues, 20 min

## CC(C)C[C@H](NC(=O)[C@H](Cc1c[nH]cn1)NC(=O)[C@H](Cc1ccc(O)cc1)NC(=O)[C@H](CCCNC(=N)N)NC(=O)[C@H](Cc1ccc(O)cc1)NC(=O)[C@H](CCCCN)NC(=O)[C@@H](N)CCCCN)C(=O)N[C@@H](CCCCN)C(=O)N1CCC[C@H]1C(=O)N[C@@H](Cc1ccccc1)C(=O)N[C@@H](CS)C(=O)N[C@@H](CCCCN)C(=O)N[C@@H](CCCCN)C(=O)O [p-BthTX-I]
[2]
  MBC: >512 µM
[3]; S. aureus SA88 (MRSA, daptomycin heteroresistant), CAMHB, 24 h, 37 °C, duplicate
  MIC: 512 µM (≈ 890 µg/mL)
[3]; S. aureus SA88, sub-culture on MH agar, 99.9% death
  MBC: >512 µM
[4]; CAMHB, 24 h, 37 °C
  MIC: 512 µM (≈ 890 µg/mL)
[4]; sub-culture on MH agar, 99.9% death
  MBC: 512 µM (≈ 890 µg/mL)
[5]
  MIC: >512 µM
[6]
  MBC: 512 µM (≈ 890 µg/mL)
[7]; E. coli ATCC35218, CAMHB, 24 h, 37 °C, duplicate
  MIC: 512 µM (≈ 890 µg/mL)
[7]; E. coli ATCC35218, sub-culture on MH agar, 99.9% death
  MBC: >512 µM
[8]
  MIC: >512 µM
[9]
  Incubation time after which the peptide was completely degraded in human serum: 30 min
[10]; S. epidermidis ATCC35984, CAMHB, 24 h, 37 °C, duplicate
  MIC: 128 µM (≈ 223 µg/mL)
[10]; S. epidermidis ATCC35984, sub-culture on MH agar, 99.9% death
  MBC: 512 µM (≈ 890 µg/mL)
[11]; E. faecium VRE16 (vancomycin resistant), CAMHB, 24 h, 37 °C, duplicate
  MIC: 128 µM (≈ 223 µg/mL)
[11]; E. faecium VRE16, sub-culture on MH agar, 99.9% death
  MBC: >512 µM
[12]; E. faecium HSJRP8 (daptomycin resistant), CAMHB, 24 h, 37 °C, duplicate
  MIC: 32 µM (≈ 55.7 µg/mL)
[12]; E. faecium HSJRP8, sub-culture on MH agar, 99.9% death
  MBC: >512 µM
[13]
  MBC: >512 µM
[14]
  MIC: >512 µM
[15]
  MIC: >512 µM

## CC(C)C[C@H](NC(=O)[C@H](Cc1c[nH]cn1)NC(=O)[C@H](Cc1ccc(O)cc1)NC(=O)[C@H](CCCNC(=N)N)NC(=O)[C@H](Cc1ccc(O)cc1)NC(=O)[C@H](CCCCN)NC(=O)[C@@H](N)CCCCN)C(=O)N[C@@H](CCCCN)C(=O)N1CCC[C@H]1C(=O)N[C@@H](Cc1ccccc1)C(=O)N[C@@H](CSSC[C@H](NC(=O)[C@H](Cc1ccccc1)NC(=O)[C@@H]1CCCN1C(=O)[C@H](CCCCN)NC(=O)[C@H](CC(C)C)NC(=O)[C@H](Cc1c[nH]cn1)NC(=O)[C@H](Cc1ccc(O)cc1)NC(=O)[C@H](CCCNC(=N)N)NC(=O)[C@H](Cc1ccc(O)cc1)NC(=O)[C@H](CCCCN)NC(=O)[C@@H](N)CCCCN)C(=O)N[C@@H](CCCCN)C(=O)O)C(=O)N[C@@H](CCCCN)C(=O)O [des-Lys^13-(p-BthTX-I)2]
[16]
  MIC: >128 µM
[17]
  HC50 (peptide concentration that produced 50% hemolysis): >128 µM
[18]
  MIC: 32 µM (≈ 103 µg/mL)
[19]
  MIC: 128 µM (≈ 412 µg/mL)
